Test results from patent US11179450B2, “Long chain antigen containing interepitope sequence that promotes antigen presentation to T cells” (MIE UNIVERSITY, priority 2013, dated 2021).

Key:
[1] = tested on: CD8+ T cells specific to MA p265, NY p81 and mERK2 9m; assay: Specific CD8+ T cell induction by CHP/long chain peptide vaccines in mice, intracellular cytokine staining of spleen cells; format: in vivo, BALB/c mice
From the text: Long chain peptide antigens MEN, all containing three types of mouse CD8+ T cell epitope sequences (MA p265 (Sequence No. 27), NY p81 (Sequence No. 29), and mERK2 9m (Sequence No. 28)), were synthesized. The interepitope sequences between the respective epitopes were respectively six consecutive tyrosines (Y6) (Sequence No. 1), six consecutive glycines (G6) (Sequence No. 2), six consecutive prolines (P6) (Sequence No. 3), or six consecutive threonines (T6) (Sequence No. 4). Each long chain peptide antigen was complexed with cholesterol-modified pullulan (CHP), which is a type of delivery system, and administered as a vaccine to a mouse. In the process of administration, CpG oligo DNA was coadministered as an adjuvant. Spleen cells were collected one week after the final administration and the frequencies of CD8+ T cells specific to the respective epitope sequences were measured by an intracellular cytokine staining method.
Long chain peptide antigens NME, all containing three types of mouse CD8+ T cell epitope sequences (MA p265 (Sequence No. 27), NY p81 (Sequence No. 29), and mERK2 9m (Sequence No. 28)), were synthesized. The antigens differ from the MEN sequences shown in FIG. 1 in the order of the three types of epitopes. The interepitope sequences between the respective epitopes were respectively six consecutive tyrosines (Y6) (Sequence No. 5), six consecutive glycines (G6) (Sequence No. 6), or six consecutive prolines (P6) (Sequence No. 7). Vaccines containing the respective long chain peptide antigens were administered to mice in the same manner as in FIG. 1 and the frequencies of CD8+ T cells specific to the respective epitope sequences were measured by the intracellular cytokine staining method.
Long chain peptide antigens MEN, ENM, and NME, all containing three types of mouse CD8+ T cell epitope sequences (MA p265 (Sequence No. 27), NY p81 (Sequence No. 29), and mERK2 9m (Sequence No. 28)), were synthesized. MEN, ENM, and […] in the order of the three types of epitopes. The interepitope sequences between the respective epitopes were each six consecutive tyrosines (Y6) (Sequence Nos. 1, 5 and 8). Vaccines containing the respective long chain peptide antigens were administered to mice in the same manner as in FIG. 1 and the frequencies of CD8+ T cells specific to the respective epitope sequences were measured by the intracellular cytokine staining method.
Each long chain peptide was dissolved in dimethyl sulfoxide (DMSO) at a concentration of 10 mg/mL. CHP was dissolved in 6 M urea-containing phosphate buffered saline (PBS) at a concentration of 10 mg/mL 1 mL (10 mg) of the long chain peptide solution and 20 mL (200 mg) of the CHP solution were mixed and left to stand at room temperature overnight in a dark place. The liquid mixture was transferred into a dialysis membrane (molecular weight cutoff: 3,500; Thermo Fisher Scientific, Inc.) and dialyzed for 2 hours to overnight at 4° C. against 0.6 M urea-containing PBS of a volume ratio of not less than 100 times as the dialysis outer solution. Dialysis was then performed for 2 hours to overnight at 4° C. against 0.06 M urea-containing PBS of a volume ratio of not less than 100 times as the dialysis outer solution. Dialysis was performed again for 2 hours to overnight at 4° C. against PBS of a volume ratio of not less than 100 times as the dialysis outer solution. The dialyzed inner solution was collected, filtered through a filtration sterilization filter of 0.45 μm or 0.22 μm pore size, and thereafter the UV absorption at 280 nm was measured to determine the final concentration of the long chain peptide from its molecular extinction coefficient.
Each CHP/long chain peptide complex as the vaccine and the CpG oligo DNA as the adjuvant were administered at the same time to a mouse. Administration was performed by subcutaneous injection on the back of the mouse. […]

[2] = tested on: NY p157 specific CD8+ T cell clone 1G4 cells; assay: Antigen presentation by LCL given CHP/long chain peptide vaccine, IFN-γ ELISPOT; format: cell-based, human; conditions: FIG. 10; NMW peptide complexed with CHP given to LCL as antigen-presenting cells
From the text: Long chain peptide antigens NMW, all containing three types of human CD8+ T cell epitope sequences (NY p157:HLA-A0201 restrictive, MA4 p143:HLA-A2402 restrictive, and WT1: HLA-A2402 restrictive p235), were synthesized. The interepitode sequences between the respective epitopes were the six consecutive amino acids shown in FIG. 10, namely Sequence Nos. 18-26. Each long chain peptide antigen was complexed with cholesterol-modified pullulan (CHP), which is a type of delivery system, and administered in vitro as a vaccine to an immortalized human B cell line (LCL). Using these human B cells as the antigen-presenting cells, they were co-cultured with CD8+ T cell clone 1G4 cells specific to NY p157 and the activation of the 1G4 cells due to antigen presentation was measured by an IFN-γ ELISPOT method. As a positive control, LCL administered with an NY p157 short chain peptide was used as the antigen-presenting cells, and as a negative control, LCL without antigen added was used as the antigen-presenting cells.
Cryostored LCL was rinsed with RPMI medium and suspended at 1.25×10^6/mL in X-VIVO15 medium. This was dispensed in 0.4 mL aliquots into polypropylene tubes, and 0.1 mL of a vaccine solution (0.1 mg/mL as peptide) was added to each tube. The cells were cultured for 24 hours at 37° C. in the presence of 5% CO2 and then used as antigen-presenting cells.
75 μL aliquots of anti-IFN-γ antibody for capture, diluted to an appropriate concentration, were dispensed into a 96-well plate (Millipore Corp., Multiscreen HA, MAHAS4510) specially designed for ELISPOT and left to stand overnight at 4° C. After discarding the liquid and rinsing with RPMI medium, 100 μL aliquots of RPMI medium containing 10% fetal bovine serum were dispensed and the plate was left to stand for not less than 1 hour at 37° C. The liquid was discarded, and the LCL prepared in (9) or (10) was adjusted to 5×10^4 cells/100 μL/well and added to each well. The cryostored CD8^+ T cell clones were thawed, rinsed, adjusted to 5×10^5/mL with RPMI medium, and thereafter added in 0.1 mL aliquots to each well. After culturing for 24 hours at 37° C. in the presence of 5% CO2, the liquid was discarded and the plate was rinsed well with phosphate buffered saline containing 0.05% Tween 20 (PBS-T). A biotin-labeled IFN-γ antibody for detection was diluted to an appropriate concentration and dispensed in 0.1 mL aliquots into each well. After letting stand overnight at 4° C., the plate was rinsed well with PBS-T, and an alkaline phosphatase-labeled streptavidin diluted to an appropriate concentration was added in 0.1 mL aliquots. After incubating for 1 hour at room temperature, the plate was rinsed well with PBS-T. A coloring solution was added in 0.1 mL aliquots and allowed to react for 5 minutes to 30 minutes at room temperature. When the formation of spots was observed, the reaction was stopped by rinsing with water.

[3] = FIG. 4, MEN, ENM, NME epitope orders, interepitope sequence fixed at Y6
[4] = FIG. 3, NME antigens (different epitope order) complexed with CHP, CpG oligo DNA

| Sequence | activation of 1G4 cells [2] | other results |
| --- | --- | --- |
| QYIHSANVLYYYYYYRGPESRLLYYYYYYSNPARYEFL (Long chain peptide antigen, containing three types of mouse CD8+ T cell epitope sequences (MA p265, NY p81, and mERK2 9m)) [ENM(Y6)] |  | induction of specific CD8+ T cells corresponding to all three types of epitopes [1, 3]: clearly induced |
| RGPESRLLGGGGGGSNPARYEFLGGGGGGQYIHSANVL (Long chain peptide antigen, containing three types of mouse CD8+ T cell epitope sequences (MA p265, NY p81, and mERK2 9m)) [NME(G6)] |  | induction of specific CD8+ T cells corresponding to all three types of epitopes [1, 4]: not observed for one or two types of epitopes among the three types of epitopes |
| RGPESRLLPPPPPPSNPARYEFLPPPPPPQYIHSANVL (Long chain peptide antigen, containing three types of mouse CD8+ T cell epitope sequences (MA p265, NY p81, and mERK2 9m)) [NME(P6)] |  | induction of specific CD8+ T cells corresponding to all three types of epitopes [1, 4]: not observed for one or two types of epitopes among the three types of epitopes |
| RGPESRLLYYYYYYSNPARYEFLYYYYYYQYIHSANVL (Long chain peptide antigen, containing three types of mouse CD8+ T cell epitope sequences (MA p265, NY p81, and mERK2 9m)) [NME(Y6)] |  | induction of specific CD8+ T cells corresponding to all three types of epitopes [1, 4]: clearly induced; induction of specific CD8+ T cells corresponding to all three types of epitopes [1, 3]: clearly induced |
| SLLMWITQCAAAAAANYKRCFPVIAAAAAACMTWNQMNL (Long chain peptide antigen, containing three types of human CD8+ T cell recognition epitope sequences (NY p157, MA4 p143, and WT1 p235)) [NMW(A6)] | clearly observed |  |
| SLLMWITQCGGGGGGNYKRCFPVIGGGGGGCMTWNQMNL (Long chain peptide antigen, containing three types of human CD8+ T cell recognition epitope sequences (NY p157, MA4 p143, and WT1 p235)) [NMW(G6)] | not clearly confirmed |  |
| SLLMWITQCNNNNNNNYKRCFPVINNNNNNCMTWNQML (SLLMWITQCNNNNNNNYKRCFPVINNNNNNCMTWNQMNL; Long chain peptide antigen, containing three types of human CD8+ T cell recognition epitope sequences (NY p157, MA4 p143, and WT1 p235)) [NMW(N6)] | clearly observed |  |
| SLLMWITQCPPPPPPNYKRCFPVIPPPPPPCMTWNQMNL (Long chain peptide antigen, containing three types of human CD8+ T cell recognition epitope sequences (NY p157, MA4 p143, and WT1 p235)) [NMW(P6)] | not clearly confirmed |  |
| SLLMWITQCQQQQQQNYKRCFPVIQQQQQQCMTWNQMNL (Long chain peptide antigen, containing three types of human CD8+ T cell recognition epitope sequences (NY p157, MA4 p143, and WT1 p235)) [NMW(Q6)] | clearly observed |  |
| SLLMWITQCSSSSSSNYKRCFPVISSSSSSCMTWNQMNL (Long chain peptide antigen, containing three types of human CD8+ T cell recognition epitope sequences (NY p157, MA4 p143, and WT1 p235)) [NMW(S6)] | clearly observed |  |
| SLLMWITQCYYYYYYNYKRCFPVIYYYYYYCMTWNQMNL (Long chain peptide antigen, containing three types of human CD8+ T cell recognition epitope sequences (NY p157, MA4 p143, and WT1 p235)) [NMW(Y6)] | clearly confirmed |  |
| SNPARYEFLTTTTTTQYIHSANVLTTTTTTRGPESRLL (Long chain peptide antigen, containing three types of mouse CD8+ T cell epitope sequences (MA p265, NY p81, and mERK2 9m)) [MEN(T6)] |  | induction of specific CD8+ T cells corresponding to all three types of epitopes ([1]; FIG. 1, MEN antigens complexed with CHP, subcutaneous, CpG oligo DNA adjuvant, spleen cells one week after final administration): clearly induced |
